We go through 19 compounds from ChEMBL document CHEMBL1909046, “DrugMatrix in vitro pharmacology data”.

Broadly, the IC50 is the concentration needed to halve the response being measured. Broadly, the Ki is a dissociation constant, usually derived from enzyme kinetics or from competition with a known ligand.

A short description of data set [1]: DRUGMATRIX: Purinergic P2X radioligand binding (ligand: [3H] alpha, beta-Methylene-ATP). The class given is cell membranes, Oryctolagus cuniculus, New Zealand albino, Urinary bladder, Membrane. As to conditions: Not Active = under 50% inhibition at 10 µM.
Another data set deals with Estrogen receptor beta (Homo sapiens, UniProt Q92731). As to conditions: sf9.
Estrogen receptor beta, sequence (Q92731 whole entry): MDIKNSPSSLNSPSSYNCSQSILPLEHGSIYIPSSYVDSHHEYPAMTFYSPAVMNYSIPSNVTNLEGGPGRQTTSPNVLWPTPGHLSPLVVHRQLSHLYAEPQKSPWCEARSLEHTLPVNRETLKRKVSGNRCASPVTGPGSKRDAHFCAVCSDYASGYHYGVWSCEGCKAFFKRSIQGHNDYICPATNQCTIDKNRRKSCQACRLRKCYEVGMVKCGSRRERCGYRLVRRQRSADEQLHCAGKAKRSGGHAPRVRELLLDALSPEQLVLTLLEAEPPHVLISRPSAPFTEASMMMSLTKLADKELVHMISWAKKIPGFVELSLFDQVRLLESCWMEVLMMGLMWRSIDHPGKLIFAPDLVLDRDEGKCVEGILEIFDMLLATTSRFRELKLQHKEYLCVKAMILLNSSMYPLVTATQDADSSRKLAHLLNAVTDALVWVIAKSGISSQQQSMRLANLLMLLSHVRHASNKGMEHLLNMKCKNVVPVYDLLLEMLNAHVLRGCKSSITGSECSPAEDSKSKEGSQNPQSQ
For data set [2], the target named is T1, Muscarinic acetylcholine receptor M5 (Homo sapiens, UniProt P08912). Also: in other assays of this panel Not Active means under 50% inhibition at 10 µM.
T1 sequence (P08912 whole entry): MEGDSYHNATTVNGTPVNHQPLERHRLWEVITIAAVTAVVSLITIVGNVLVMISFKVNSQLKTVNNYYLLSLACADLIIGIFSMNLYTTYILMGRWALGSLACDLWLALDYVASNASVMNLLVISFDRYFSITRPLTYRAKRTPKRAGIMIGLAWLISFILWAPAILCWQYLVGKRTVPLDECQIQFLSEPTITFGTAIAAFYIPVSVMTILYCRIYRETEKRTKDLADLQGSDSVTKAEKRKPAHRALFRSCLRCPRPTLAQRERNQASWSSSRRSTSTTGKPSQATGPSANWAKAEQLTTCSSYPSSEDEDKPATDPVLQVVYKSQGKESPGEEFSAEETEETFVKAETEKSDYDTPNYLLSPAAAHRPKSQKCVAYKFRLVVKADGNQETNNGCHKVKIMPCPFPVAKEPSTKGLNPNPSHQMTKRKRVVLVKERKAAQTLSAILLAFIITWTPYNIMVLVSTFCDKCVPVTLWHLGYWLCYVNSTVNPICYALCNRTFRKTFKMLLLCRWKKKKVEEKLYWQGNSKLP
The data set is classed as cell membranes, CHO-K1, Membrane. The following applies: for Ki: read-out: Ki.

Another data set has as its target Cytochrome P450 2C19 (Homo sapiens, UniProt P33261). As to conditions: bti-tn-5b1-4. Also: in other assays of this panel Not Active means under 50% inhibition at 10 µM.
In data set [3] the target is T2, Alpha-1B adrenergic receptor (Rattus norvegicus, UniProt P15823).
T2 sequence (P15823 whole entry): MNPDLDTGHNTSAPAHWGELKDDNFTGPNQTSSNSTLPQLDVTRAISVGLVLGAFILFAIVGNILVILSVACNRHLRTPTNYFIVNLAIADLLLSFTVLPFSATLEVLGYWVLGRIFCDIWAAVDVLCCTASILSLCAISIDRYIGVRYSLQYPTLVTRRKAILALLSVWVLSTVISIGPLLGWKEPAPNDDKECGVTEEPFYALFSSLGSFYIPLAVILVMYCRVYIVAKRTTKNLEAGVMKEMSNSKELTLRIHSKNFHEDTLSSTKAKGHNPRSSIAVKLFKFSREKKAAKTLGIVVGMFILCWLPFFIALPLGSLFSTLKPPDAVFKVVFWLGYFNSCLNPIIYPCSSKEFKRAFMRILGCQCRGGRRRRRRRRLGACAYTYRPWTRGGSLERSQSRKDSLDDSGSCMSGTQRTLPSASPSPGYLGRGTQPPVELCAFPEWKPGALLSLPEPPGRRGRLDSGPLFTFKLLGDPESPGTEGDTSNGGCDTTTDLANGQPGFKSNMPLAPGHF
The data set can be described thus: DRUGMATRIX: Alpha-1B adrenergic receptor radioligand binding (ligand: prazosin). The class given is cell membranes, Wistar, Liver, Membrane. As to conditions: Not Active = under 50% inhibition at 10 µM.

The next data set has as its target Melanocortin receptor 4 (Homo sapiens, UniProt P32245). The data set is classed as cell membranes, HEK293, Membrane. Also: in other assays of this panel Not Active means under 50% inhibition at 10 µM.
The target in data set [4] is T3, Muscarinic acetylcholine receptor M2 (Homo sapiens, UniProt P08172). Also: in other assays of this panel Not Active means under 50% inhibition at 10 µM.
T3 sequence (P08172 whole entry): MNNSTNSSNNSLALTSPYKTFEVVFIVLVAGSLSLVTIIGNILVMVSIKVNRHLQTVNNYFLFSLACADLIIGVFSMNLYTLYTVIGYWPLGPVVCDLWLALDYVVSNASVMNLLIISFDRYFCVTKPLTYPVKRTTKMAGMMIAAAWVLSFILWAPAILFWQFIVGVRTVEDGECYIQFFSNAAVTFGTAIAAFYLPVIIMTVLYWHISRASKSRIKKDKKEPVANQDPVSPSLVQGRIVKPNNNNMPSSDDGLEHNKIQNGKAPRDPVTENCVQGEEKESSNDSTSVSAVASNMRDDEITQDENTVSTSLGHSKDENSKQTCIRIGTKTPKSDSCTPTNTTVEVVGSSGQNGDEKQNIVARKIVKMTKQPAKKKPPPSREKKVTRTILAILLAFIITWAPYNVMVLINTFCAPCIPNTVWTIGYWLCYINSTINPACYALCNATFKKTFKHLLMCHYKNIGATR
The data set is classed as cell membranes, CHO-K1, Membrane.

Molecules are shown by their SMILES.

Cytochrome P450 2C19, sequence (P33261 whole entry): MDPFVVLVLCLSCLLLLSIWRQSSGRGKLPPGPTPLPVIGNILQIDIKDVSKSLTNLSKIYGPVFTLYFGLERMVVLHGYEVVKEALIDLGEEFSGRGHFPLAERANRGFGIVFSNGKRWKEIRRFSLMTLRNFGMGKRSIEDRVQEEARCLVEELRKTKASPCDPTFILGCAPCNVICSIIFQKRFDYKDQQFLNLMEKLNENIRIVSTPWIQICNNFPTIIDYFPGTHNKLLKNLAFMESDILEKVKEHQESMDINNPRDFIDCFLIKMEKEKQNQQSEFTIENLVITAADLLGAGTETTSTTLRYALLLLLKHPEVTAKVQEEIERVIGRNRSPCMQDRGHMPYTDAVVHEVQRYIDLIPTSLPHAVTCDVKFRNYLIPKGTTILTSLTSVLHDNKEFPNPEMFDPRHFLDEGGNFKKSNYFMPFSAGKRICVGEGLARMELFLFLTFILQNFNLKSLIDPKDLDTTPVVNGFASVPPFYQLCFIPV
Melanocortin receptor 4, sequence (P32245 whole entry): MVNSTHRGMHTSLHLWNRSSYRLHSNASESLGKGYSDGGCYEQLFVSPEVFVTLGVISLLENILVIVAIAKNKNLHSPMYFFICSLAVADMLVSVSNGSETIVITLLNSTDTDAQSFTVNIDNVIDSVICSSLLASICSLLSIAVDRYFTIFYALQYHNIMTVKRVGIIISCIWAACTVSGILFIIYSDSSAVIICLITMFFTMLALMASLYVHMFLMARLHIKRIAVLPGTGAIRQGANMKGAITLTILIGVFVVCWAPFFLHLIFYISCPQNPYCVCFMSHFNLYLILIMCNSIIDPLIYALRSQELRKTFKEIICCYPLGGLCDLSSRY

With `CC(C)(C)NC(=O)[C@@H]1C[C@@H]2CCCC[C@@H]2CN1C[C@@H](O)[C@H](Cc1ccccc1)NC(=O)[C@H](CC(N)=O)NC(=O)c1ccc2ccccc2n1`, the 50% inhibitory concentration (IC50) result (in data set [1]; against Estrogen receptor beta; in data set [2] (cho-k1); against Cytochrome P450 2C19; in data set [3]; against Melanocortin receptor 4 (hek293)) was “Not Active” throughout. Besides, the IC50 result in data set [4] (cho-k1) is reported as “Not Active”. Also, the Ki entry (in data set [1]; at Cytochrome P450 2C19) was “Not Active” in each case.
With `CC1(C)O[C@@H]2C[C@H]3[C@@H]4CCC5=CC(=O)C=C[C@]5(C)[C@@]4(F)[C@@H](O)C[C@]3(C)[C@]2(C(=O)CO)O1` [TRIAMCINOLONE ACETONIDE], the IC50 result (in data set [1]; against Estrogen receptor beta; in data set [2] (cho-k1); on Cytochrome P450 2C19; in data set [3]; at Melanocortin receptor 4 (hek293)) was “Not Active” in each case. In addition, in data set [4] (cho-k1), the concentration for half-maximal inhibition (IC50) entry is reported as “Not Active”. In addition, the inhibitory constant (Ki) entry (in data set [1]; at Cytochrome P450 2C19) was “Not Active” each time.
On to `Cc1cccc(N(C)C(=S)Oc2ccc3ccccc3c2)c1` [TOLNAFTATE], for which the 50% inhibitory concentration (IC50) result (in data set [1]; against Estrogen receptor beta; in data set [2] (cho-k1); in data set [3]; on Melanocortin receptor 4 (hek293); in data set [4] (cho-k1)) was “Not Active” in each case. The Ki result in data set [1] is “Not Active”.
For the compound `C[C@@H]1CN(c2c(F)c(N)c3c(=O)c(C(=O)O)cn(C4CC4)c3c2F)C[C@H](C)N1` [SPARFLOXACIN], the IC50 entry (in data set [1]; against Estrogen receptor beta; in data set [2] (cho-k1); against Cytochrome P450 2C19; in data set [3]; against Melanocortin receptor 4 (hek293)) was “Not Active” each time. Further, the IC50 result in data set [4] (cho-k1) is “Not Active”. For the same compound, the Ki result (in data set [1]; on Cytochrome P450 2C19) was “Not Active” throughout.
Turning to `Cn1ccnc1S` [METHIMAZOLE], the 50% inhibitory concentration (IC50) result (in data set [1]; against Estrogen receptor beta; in data set [2] (cho-k1); against Cytochrome P450 2C19; in data set [3]; at Melanocortin receptor 4 (hek293)) was “Not Active” throughout. Besides, the IC50 result in data set [4] (cho-k1) is “Not Active”. Moreover, the inhibitory constant (Ki) entry (in data set [1]; on Cytochrome P450 2C19) was “Not Active” each time.
Consider `CN1CCN(CCCN2c3ccccc3Sc3ccc(Cl)cc32)CC1` [PROCHLORPERAZINE], for which the half-inhibitory concentration (IC50) entry is “Not Active” against Estrogen receptor beta, 0.22 µM in data set [2] (read-out: IC50), “Not Active” against Cytochrome P450 2C19 and “Not Active” at Melanocortin receptor 4 (hek293). Further, the inhibition constant Ki in data set [2] is 0.158 µM; at Cytochrome P450 2C19 it was “Not Active”.
As to `C=CCC1(C(C)CCC)C(=O)NC(=O)NC1=O` (configuration not stated) [SECOBARBITAL], the 50% inhibitory concentration (IC50) result (in data set [1]; against Estrogen receptor beta; in data set [2] (cho-k1); at Cytochrome P450 2C19; in data set [3]; on Melanocortin receptor 4 (hek293)) was “Not Active” throughout. Also, the half-maximal inhibitory concentration (IC50) result in data set [4] (cho-k1) is “Not Active”. Besides, the inhibitory constant (Ki) entry (in data set [1]; at Cytochrome P450 2C19) was “Not Active” in each case.
For `N[C@@H](Cc1ccc(N(CCCl)CCCl)cc1)C(=O)O`, the IC50 result (in data set [1]; at Estrogen receptor beta; in data set [2] (cho-k1); against Cytochrome P450 2C19; in data set [3]; on Melanocortin receptor 4 (hek293)) was “Not Active” throughout. Further, the IC50 result in data set [4] (cho-k1) is “Not Active”. In addition, the inhibition constant (Ki) result (in data set [1]; at Cytochrome P450 2C19) was “Not Active” in each case.
On to `Nc1nc2ccc(OC(F)(F)F)cc2s1` [RILUZOLE], for which the IC50 result (in data set [1]; against Estrogen receptor beta; in data set [2] (cho-k1); in data set [3]; against Melanocortin receptor 4 (hek293); in data set [4] (cho-k1)) was “Not Active” in each case. Further, the Ki result in data set [1] is given as “Not Active”.
Regarding `N[C@@H]1[C@H]2CN(c3nc4c(cc3F)c(=O)c(C(=O)O)cn4-c3ccc(F)cc3F)C[C@@H]12` [TROVAFLOXACIN], the IC50 entry (in data set [1]; against Estrogen receptor beta; in data set [2] (cho-k1); on Cytochrome P450 2C19; in data set [3]; on Melanocortin receptor 4 (hek293)) was “Not Active” in each case. Besides, the IC50 result in data set [4] (cho-k1) is “Not Active”. Also, the inhibition constant Ki entry (in data set [1]; at Cytochrome P450 2C19) was “Not Active” in each case.
Turning to `Cc1nc2n(c(=O)c1CCN1CCC(c3noc4cc(F)ccc34)CC1)CCCC2` [RISPERIDONE], the IC50 entry (in data set [2] (cho-k1); against Cytochrome P450 2C19; at Melanocortin receptor 4 (hek293); in data set [4] (cho-k1)) was “Not Active” each time. Also, the Ki result at Cytochrome P450 2C19 is on record as “Not Active”.
With `N[C@@H](Cc1cc(I)c(Oc2ccc(O)c(I)c2)c(I)c1)C(=O)O` [LIOTHYRONINE], the IC50 entry (in data set [2] (cho-k1); at Cytochrome P450 2C19; in data set [3]; against Melanocortin receptor 4 (hek293); in data set [4] (cho-k1)) was “Not Active” throughout. The Ki result on Cytochrome P450 2C19 is on record as “Not Active”.
Regarding `CC[C@]1(O)C[C@H]2CN(CCc3c([nH]c4ccccc34)[C@@](C(=O)OC)(c3cc4c(cc3OC)N(C=O)[C@H]3[C@@](O)(C(=O)OC)[C@H](OC(C)=O)[C@]5(CC)C=CCN6CC[C@]43[C@@H]65)C2)C1` [VINCRISTINE], the 50% inhibitory concentration (IC50) entry (in data set [1]; in data set [2] (cho-k1); on Cytochrome P450 2C19; in data set [3]; against Melanocortin receptor 4 (hek293); in data set [4] (cho-k1)) was “Not Active” each time. The inhibitory constant (Ki) result (in data set [1]; on Cytochrome P450 2C19) was “Not Active” each time.
With `CC(=O)[C@@]1(O)CC[C@H]2[C@@H]3C[C@H](C)C4=CC(=O)CC[C@]4(C)[C@H]3CC[C@@]21C`, the 50% inhibitory concentration (IC50) result (in data set [1]; against Estrogen receptor beta; in data set [2] (cho-k1); in data set [3]; against Melanocortin receptor 4 (hek293); in data set [4] (cho-k1)) was “Not Active” throughout. For the same compound, the inhibitory constant (Ki) entry in data set [1] is reported as “Not Active”.
Take `CCCCc1oc2ccccc2c1C(=O)c1cc(I)c(OCCN(CC)CC)c(I)c1` [AMIODARONE]: the half-maximal inhibitory concentration (IC50) result was “Not Active” on Estrogen receptor beta and 1.5 µM in data set [2] (read-out: IC50). Also, in data set [2], the Ki stood at 1.08 µM.
In the case of `CCOC(=O)N1CCC(=C2c3ccc(Cl)cc3CCc3cccnc32)CC1` [LORATADINE], the IC50 result (in data set [1]; on Estrogen receptor beta; in data set [2] (cho-k1); in data set [3]; on Melanocortin receptor 4 (hek293); in data set [4] (cho-k1)) was “Not Active” each time. Also, in data set [1], the Ki result was “Not Active”.
For the compound `CC(C)N1CCN(c2ccc(OCC3COC(Cn4cncn4)(c4ccc(Cl)cc4Cl)O3)cc2)CC1` (configuration not stated) [TERCONAZOLE], the IC50 entry is “Not Active” in data set [1]; “Not Active” on Estrogen receptor beta; 4.36 µM in data set [2] (read-out: IC50); “Not Active” against Cytochrome P450 2C19; “Not Active” at Melanocortin receptor 4 (hek293); 12.9 µM in data set [4] (read-out: IC50). In addition, the Ki result is “Not Active” in data set [1], 3.13 µM in data set [2], “Not Active” on Cytochrome P450 2C19 and 4.59 µM in data set [4] (read-out: Ki).
For the compound `CC[C@@H](CO)NC(=O)[C@@H]1C=C2c3cccc4[nH]cc(c34)C[C@H]2N(C)C1` [METHYLERGONOVINE], the IC50 result (in data set [1]; at Estrogen receptor beta; in data set [2] (cho-k1); in data set [3]; against Melanocortin receptor 4 (hek293); in data set [4] (cho-k1)) was “Not Active” throughout. In data set [1], the inhibition constant (Ki) result is reported as “Not Active”.
`CC/C(=C(\c1ccccc1)c1ccc(OCCN(C)C)cc1)c1ccccc1` [TAMOXIFEN]: the concentration for half-maximal inhibition (IC50) in data set [2] (read-out: IC50) is 2.58 µM; against Cytochrome P450 2C19 it was “Not Active”; on Melanocortin receptor 4 (read-out: IC50), 30.5 µM. Besides, the figures for the Ki (in data set [2]; on Cytochrome P450 2C19; on Melanocortin receptor 4 (read-out: Ki)) were 1.86 µM, “Not Active” and 29.3 µM, respectively.
